From ChEMBL document CHEMBL1201862, “PubChem BioAssay data set” (2004)
Activity calls are given as the source filed them.

How the values were obtained:
[1] = PAX8-dependent cell viability loss – plate reader, dry powder, dose response (AID 743049); format: functional, cell-based
Vero = assay: cells; format: functional; conditions: Chlorocebus sabaeus
[2] = PAX5 cellular inhibition readout – cell-based, plate reader, dry powder samples, selectivity assay for PAX8 inhibitor project, dose response (AID 743047); format: functional;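 also: HEK293 cells carrying a Pax5 driven CD19 promoter luciferase reporter; potency of inhibitors that lower reporter luminescence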
Paired box protein Pax-8 = Paired box protein Pax-8 (Homo sapiens, UniProt Q06710); assay: PAX8 transcriptional activity inhibition in RMG-I – RMG-I cells, luciferase, cherry-pick, dose response (AID 687027); format: functional, cell-based;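 also: luciferase reporter driven by Pax8 target thyroperoxidase promoter measured by SteadyGlo luminescence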
[3] = toxicity to human HepG2 hepatoma cells – cell-based, plate reader, dry powder samples, cytotoxicity control, dose response (AID 1159569); format: functional;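 also: inhibitor potency with signal falling toward the positive control level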
[4] = growth inhibition of PfATP4-mutant resistant parasites – NITD609-resistant line, SYBR Green, dry powder, dose response (AID 1159571); format: functional, cell-based;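 also: parasites synchronized at ring stage by sorbitol before testing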
[5] = growth inhibition of yeast DHODH-expressing 3D7 parasites – SYBR Green, dry powder samples, dose response (AID 1159570); format: functional, cell-based;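 also: parasite growth measured after 72 hours of compound exposure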
[6] = Dd2 malaria parasite growth inhibition potency – SYBR Green, dry powder samples, dose response (AID 1159566); format: functional, cell-based;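 also: potency for growth inhibition with lower SYBR green DNA signal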
[7] = P. falciparum Dd2 growth inhibitors, dose response, SYBR Green, cherry-picked samples (AID 1159567); format: functional, cell-based
Cytochrome P450 2C9 = Cytochrome P450 2C9 (Homo sapiens, UniProt P11712)
[8] = HIV-1 Vif–A3G interaction blockers – biochemical, TR-FRET, GST-Vif 1-94, biotin-A3G peptide, dose response retest, primary screen (AID 1117319); format: functional;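 also: TR-FRET signal of purified GST-Vif binding a biotinylated A3G peptide; inhibitors lower the FRET signal by blocking Vif and A3G binding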
Cytochrome P450 2C19 = Cytochrome P450 2C19 (Homo sapiens, UniProt P33261); assay: Cytochrome panel assay with activity outcomes. Panel member name: p450-cyp2c19 Compounds with AC50 equal or less than 10 uM are considered active; format: functional
[9] = biological target: T1, Trace amine-associated receptor 1 (Homo sapiens, UniProt Q96RJ0); assay: Fluorescence-based cell-based high throughput dose response assay to identify agonists of the human trace amine associated receptor 1 (TAAR1).; format: functional
T1 sequence (Q96RJ0 whole entry): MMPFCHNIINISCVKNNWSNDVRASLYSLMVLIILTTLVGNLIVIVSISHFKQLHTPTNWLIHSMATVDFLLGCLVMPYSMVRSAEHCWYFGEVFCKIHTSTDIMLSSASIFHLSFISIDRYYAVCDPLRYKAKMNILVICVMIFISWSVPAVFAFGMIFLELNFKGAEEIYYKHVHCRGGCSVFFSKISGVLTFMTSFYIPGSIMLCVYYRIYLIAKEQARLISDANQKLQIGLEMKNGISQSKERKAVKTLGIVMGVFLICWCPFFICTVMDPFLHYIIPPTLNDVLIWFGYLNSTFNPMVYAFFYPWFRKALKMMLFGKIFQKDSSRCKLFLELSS

cells [10] = format: functional, cell-based
cells [11] = format: functional, cell-based; remark: listed apart in the source
[12] = biological target: T1, Trace amine-associated receptor 1; assay: Counterscreen for agonists of the human trace amine associated receptor 1 (hTAAR1): Fluorescence-based cell-based high throughput dose response assay to identify hTAAR1 agonist that also desensitize TAAR1 receptor response.; format: functional
[13] = biological target: T2, Oxysterols receptor LXR-beta (Homo sapiens, UniProt P55055); format: functional, cell-based;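 also: agonist activity at LXR measured by a cell-based luminescence readout across a dose range, run as a counterscreen for daf-12 agonists; HEK293 cells with Gal4-LXR fusion and GAL4-driven luciferase reporter; potency for activation of Gal4-LXR reporter so compounds are agonists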
T2 sequence (P55055 whole entry): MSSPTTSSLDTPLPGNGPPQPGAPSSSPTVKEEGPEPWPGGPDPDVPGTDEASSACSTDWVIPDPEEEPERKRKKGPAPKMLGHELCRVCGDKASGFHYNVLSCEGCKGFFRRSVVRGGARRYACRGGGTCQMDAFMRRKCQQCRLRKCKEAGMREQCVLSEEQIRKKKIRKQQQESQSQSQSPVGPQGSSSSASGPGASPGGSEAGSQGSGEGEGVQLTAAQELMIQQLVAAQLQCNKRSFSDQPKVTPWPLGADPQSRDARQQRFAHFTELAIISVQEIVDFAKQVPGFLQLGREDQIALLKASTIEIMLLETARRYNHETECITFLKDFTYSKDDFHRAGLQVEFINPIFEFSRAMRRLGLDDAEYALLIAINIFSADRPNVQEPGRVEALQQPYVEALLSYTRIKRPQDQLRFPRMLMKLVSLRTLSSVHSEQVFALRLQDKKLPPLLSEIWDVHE

[14] = viability loss in HepG2 hepatoma cells – cell-based, ATP luminescence, cherry-pick, activator set 2, cytotoxicity control, dose response (AID 1053143); format: functional
Fatty acid synthase [15] = biological target: T3, Fatty acid synthase (Homo sapiens, UniProt P49327); assay: inhibition of human FAS-TE enzyme activity – biochemical, kinetic fluorescence intensity, dose response (AID 624326); format: functional;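 also: rate of fluorescence rise from hydrolysis of a fluorogenic O-methyl fluorescein ester substrate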
Major prion protein = Major prion protein (Homo sapiens, UniProt P04156); format: functional, cell-based
Fatty acid synthase [16] = biological target: T3, Fatty acid synthase; assay: inhibition of human FAS-TE enzyme activity – biochemical, endpoint fluorescence intensity, uHTS hits, dose response (AID 624327); format: functional;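 also: fluorescence from hydrolysis of an O-methyl fluorescein acyl ester substrate by the enzyme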
cells [17] = assay: cells
[18] = Late stage assay provider results from the probe development effort to identify inhibitors of the Plasmodium falciparum M18 Aspartyl Aminopeptidase (M18AAP): radiolabel-based cell-based dose response assay to identify compounds that inhibit P. falciparum growth in RBCs, Set 2..; format: functional
Protein Tat = biological target: T4, Protein Tat (Human immunodeficiency virus type 1 group M subtype B (isolate HXB2)(HIV-1), UniProt P04608); format: functional;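 also: tat binding to TAR RNA read out by fluorescence polarization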
T4 sequence (P04608 whole entry): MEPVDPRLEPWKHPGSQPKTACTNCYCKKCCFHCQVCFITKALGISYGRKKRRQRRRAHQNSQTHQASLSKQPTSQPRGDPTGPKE

[19] = blockers of HIV-1 envelope-mediated cell-cell fusion – cherry-pick, dose response (AID 652057); format: functional, cell-based
Cytochrome P450 3A4 = Cytochrome P450 3A4 (Homo sapiens, UniProt P08684);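 also: CYP3A4 tested as one member of a cytochrome P450 panel screen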
[20] = Luminescence Cell-Based Dose Retest to Confirm Inhibitors of Cancer Stem Cells. [Related pubchem assays (depositor defined):AID2717, AID2721]; format: functional; conditions: Homo sapiens
[21] = biological target: Luciferin 4-monooxygenase (Photinus pyralis, UniProt P08659); assay: inhibition of purified Photinus pyralis luciferase – biochemical, luminescence, dose response (AID 1891)
[22] = biological target: Heat shock protein HSP 90-alpha (Homo sapiens, UniProt P07900); format: functional, organism-based
[23] = Luminescence Cell-Based Dose Confirmation HTS to Identify Inhibitors of Platelet Dense Granule Release. [Related pubchem assays: 1663 (Primary HTS), 1678 (Summary of Project)]; format: functional

With `O=C1/C(=C/c2cccc(Br)c2)SC(=S)N1CCC(=O)N(CCO)c1ccccc1` as the compound, how does the AC50 [1] read?
The AC50 was 34.3 µM (active).

What about the CC50 (Vero) of the same compound?
The CC50 was > 25 µM (active).

What about the AC50 [2] of the same compound?
Its AC50 is 91.4 µM (active).

What about the AC50 (Paired box protein Pax-8) of the same compound?
Its AC50 is 8.17 µM (active).

With `c1cncc(-c2ccc([C@@H]3[C@@H]4CN(Cc5nccs5)C[C@H]3N4)cc2)c1` as the compound, how does the AC50 [3] read?
Its AC50 is 79.6 µM (active).

What about the AC50 [4] of the same compound?
The AC50 was 2.03 µM (active).

What about the AC50 [5] of the same compound?
The AC50 was 2.97 µM (active).

And the AC50 [6]?
Its AC50 is 1.72 µM (active).

And the AC50 [7]?
The AC50 was 2.15 µM (active).

Which AC50 (Cytochrome P450 2C9) does the source give for `COc1ccc(/C=C(/NC(C)=O)C(=O)O)cc1` here?
Its AC50 is 10 µM (inconclusive).

What about the IC50 [8] of the same compound?
Its IC50 is > 100 µM (active).

What about the AC50 (Cytochrome P450 2C19) of the same compound?
The AC50 was 11.2 µM (inconclusive).

What does the source list for `COc1cc(CCN)ccc1O`?
EC50 [9]: 2.4 µM (active); EC50 (cells [10]): > 29.9 µM (inactive); IC50 (cells [11]): > 29.9 µM (inactive); IC50 [12]: 21.6 µM (inactive)

With `O=C(Nc1ccccn1)c1csc2c1CCCC2` as the compound, how does the EC50 [13] read?
The EC50 was > 67.5 µM (inactive).

With `O=c1[nH]c(=O)n(C2CC(O)C(CO)O2)cc1I` (centres undefined) as the compound, how does the EC50 [13] read?
The EC50 was > 67.6 µM (inactive).

With `O=C(NCC1CCCO1)c1ccc2c3n(nc2c1)-c1ccccc1CO3` (centres undefined) as the compound, how does the AC50 [14] read?
The AC50 was > 52 µM (inactive).

With `O=C(CC(NCCc1ccccc1)C(=O)O)Nc1ccc(O)cc1` (centres undefined) as the compound, how does the EC50 [9] read?
The EC50 was 7.65 µM (active).

What about the EC50 (cells [10]) of the same compound?
The EC50 was > 29.9 µM (inactive).

What about the IC50 (cells [11]) of the same compound?
Its IC50 is > 29.9 µM (inactive).

And the IC50 [12]?
The IC50 was > 29.9 µM (inactive).

Which results are given for `Cc1ccc(NC(=O)c2cc(S(=O)(=O)N(C)C)ccc2N2CCCC2)cc1F`?
IC50 (Fatty acid synthase [15]): 6.47 µM (active); IC50 (Major prion protein): 9.92 µM (active); IC50 (Fatty acid synthase [16]): 13.3 µM (active); IC50 (cells [17]): > 138 µM (inactive)

For `COc1ccc(CCN(C)c2ccnc3ccccc23)cc1OC`, which IC50 [18] is on record?
The IC50 was 12 µM (inactive).

With `O=C1NC(=O)C(=CN2CCc3ccccc32)C(=O)N1` as the compound, how does the IC50 (Protein Tat) read?
Its IC50 is > 100 µM (active).

For `CCc1cc2c(CN3CCN(CC)CC3)cc(=O)oc2cc1O`, which IC50 [8] is on record?
The IC50 was > 100 µM (active).

With `C[C@@H]1CN([C@H](C)CO)S(=O)(=O)c2ccc(-c3ccncc3)cc2O[C@@H]1CN(C)Cc1ccc(Oc2ccccc2)cc1` as the compound, how does the AC50 [19] read?
The AC50 was 22.4 µM (active).

And the AC50 [3]?
Its AC50 is > 100 µM (inactive).

What about the AC50 [4] of the same compound?
Its AC50 is 0.616 µM (active).

And the AC50 [5]?
The AC50 was 0.589 µM (active).

And the AC50 [6]?
Its AC50 is 0.539 µM (active).

What about the AC50 [7] of the same compound?
The AC50 was 1.16 µM (active).

For `CC(=O)c1nnn(-c2nc(N)nc(N(c3ccccc3)c3ccccc3)n2)c1C`, which IC50 (Major prion protein) is on record?
The IC50 was 1.92 µM (active).

What about the AC50 (Cytochrome P450 2C9) of the same compound?
The AC50 was 31.6 µM (inconclusive).

What about the AC50 (Cytochrome P450 3A4) of the same compound?
The AC50 was “inconclusive”.

And the IC50 (cells [17])?
The IC50 was > 138 µM (inactive).

And the AC50 (Cytochrome P450 2C19)?
Its AC50 is 25.1 µM (inconclusive).

For `COc1ccc(CCN(C)c2ccnc3cc(Cl)ccc23)cc1OC`, which IC50 [18] is on record?
Its IC50 is 5.75 µM (active).

Which AC50 [14] does the source give for `O=C(Oc1cccc(/C=N/NC(=O)c2ccccn2)c1)c1ccc([N+](=O)[O-])cc1` here?
Its AC50 is > 52 µM (inactive).

With `O=C(CSc1ncnc2ccccc12)NCCc1ccccc1` as the compound, how does the IC50 (Major prion protein) read?
The IC50 was 6.69 µM (active).

And the IC50 (cells [17])?
The IC50 was > 138 µM (inactive).

Which IC50 [18] does the source give for `COc1cc(Br)c(CCNc2c3c(nc4ccccc24)CCCC3)cc1OC` here?
Its IC50 is 3 µM (active).

For `CC(Cc1ccccc1)NCCC(c1ccccc1)c1ccccc1` (centres undefined), which AC50 [14] is on record?
Its AC50 is 14.8 µM (active).

And the AC50 [20]?
Its AC50 is 10 µM (active).

For `Oc1ccc(N=Nc2ccc3ccccc3c2)cc1`, which EC50 [21] is on record?
The EC50 was 0.712 µM (active).

And the AC50 [22]?
Its AC50 is 4.38 µM (active).

What about the EC50 [13] of the same compound?
Its EC50 is > 67.5 µM (inactive).

And the EC50 [23]?
The EC50 was 3.76 µM (active).

What about the AC50 [20] of the same compound?
The AC50 was 3.06 µM (active).

For `Cc1ccc(C2SCC(=O)N2Cc2cn3ccsc3n2)o1` (centres undefined), which IC50 [8] is on record?
The IC50 was > 100 µM (active).

Which AC50 [3] does the source give for `C[C@@H]1CN([C@H](C)CO)S(=O)(=O)c2ccc(-c3cccc(C(=O)N(C)C)c3)cc2O[C@H]1CN(C)Cc1ccc2c(c1)OCO2` here?
The AC50 was 64.7 µM (active).

What about the AC50 [4] of the same compound?
The AC50 was 1.51 µM (active).

And the AC50 [5]?
The AC50 was 2.27 µM (active).

And the AC50 [6]?
The AC50 was 1.3 µM (active).

And the AC50 [7]?
Its AC50 is 2.57 µM (active).
